{
  "source": "patent US20250179465A1",
  "about": "“SITE-SPECIFIC ENCODING OF FLUORINATED PHENYLALANINE RESIDUES IN BACTERIAL AND MAMMALIAN CELLS” (University of Iowa Research Foundation, priority 2022, published 2025)",
  "key": {"PheX-D6 [1]": {"biological_target": "T1, PheX-D6 (Methanosarcina barkeri, UniProt Q6WRH6, C313M/N311A/V366G/W382T)", "assay": "ESI-MS encoding fidelity of sfGFP_N150TAG expressed in HEK 293T cells with PheX-D6", "assay_type": "cell-based, human", "design": "Phex-D6 HEK; expressed in transfected cells; host or cells: HEK 293T", "conditions": "PheX-D6, HEK 293T cells, 2 mM ncAA, estimated", "experimental": "(§1) HEK 293T cells were expanded in […]. […] Overall, 7-40 dishes were transfected with master mixes such that each dish received 3.5 μg of pACBAC1, 1.5 μg sfGFP_N150TAG, and 15 μL of PolyJET according to manufacturer's instructions. Media was changed before transfection and approximately 18 hrs after transfection. Cells were harvested approximately 36 hours after transfection. To harvest, each dish was washed twice with DPBS. Cells were harvested via scraping in ice-cold DPBS plus Roche protease inhibitors, on ice, pelleted by centrifugation, and flash frozen in liquid nitrogen. Cells were lysed in hypotonic lysis buffer (10 mM Tris/HCl pH 8, Roche protease inhibitors, 0.1% Triton X 100 Sigma) via dounce homogenization on ice. Cell debris and nuclei were cleared via centrifugation. Clarified lysate was diluted 1:2 in Wash buffer (25 mM Tris/HCl pH 8, 20 mM Imidazole, 150 mM NaCl) and applied to pre-equilibrated Ni-NTA resin (Qiagen). Column was washed in at least 30 volumes of wash buffer, then protein was eluted in elution buffer (25 mM Tris/HCl pH 8, 250 mM Imidazole, 150 mM NaCl). Elution was exchanged into 100 mM TEAB, prepared via 1:10 dilution of 1 M Stock (thermofisher) in ultrapure water. Finally, protein was concentrated to ˜0.5 mg/ml, flash frozen, and submitted to Novatia Inc for ESI mass spec of the intact protein. […] The spectra was analyzed in-house by Novatia (Promass software) to yield relative intensities of the dominant mass and any other apparent peaks. […] To be conservative, all other peaks were considered unexpected mass, even though they may not represent actual misincorporation."}, "PheX-B5 [2]": {"biological_target": "T2, PheX-B5 (Methanosarcina barkeri, UniProt Q6WRH6, C313A/N311G)", "assay_type": "cell-based", "design": "Phex-B5 ECOLI; expressed in transfected cells; host or cells: E. coli", "conditions": "PheX-B5, E. coli, sfGFP N150TAG, 1 mM ncAA, intact protein ESI-MS", "experimental": "(§2) Previously existing E. coli containing sfGFP150TAG and a given Rs in non-inducing media were used to inoculate 5 mL cultures of non-inducing media containing 50 μg/mL Kan and 25 μg/mL Tet. Cultures were incubated for 20 hours at 37° C., shaking at 250 rpm. After adequate growth, 500 μL of the 5 mL cultures were used to inoculate 50 mL cultures of auto-inducing media containing 1 mM ncAA. Cultures were incubated for 24 hours (37° C., 250 rpm), after which cultures were then spun down at 5000 rcf for 10 minutes and resuspended in 10 mL of a Tris buffer solution containing 100 mM Tris, 0.5 M NaCl, and 5 mM imidazole. Cells were lysed by micro-fluidization at 18,000 psi and centrifuged at […] for 30 minutes. sfGFP proteins in cell lysate were bound to TALON Metal Affinity Resin (bed volume of 100 μL) at 4° C. for 1 hour. Lysate and bound resin were transferred to a gravity-flow column and the resin was washed with 30 bed volumes of buffer. Protein was eluted using Tris buffer solution previously described supplemented with 200 mM imidazole. Protein concentration was assessed by comparing sfGFP fluorescence to a standard curve and submitted for ESI-MS.\n(§3) The spectra were analyzed in-house by Novatia (Promass) to yield relative intensities at given masses. […] For the purpose of estimating encoding fidelity, these were considered part of the expected mass, and all other signals were considered non-expected mass."}, "PheX-B5 [3]": {"biological_target": "T2, PheX-B5", "assay": "ESI-MS encoding fidelity of sfGFP_N150TAG expressed in HEK 293T cells with PheX-B5", "assay_type": "cell-based, human", "design": "Phex-B5 HEK; expressed in transfected cells; host or cells: HEK 293T", "conditions": "for fidelity (encoding): PheX-B5, HEK 293T cells, sfGFP_N150TAG, 2 mM ncAA, ESI-MS, estimated", "experimental": "as §1"}, "PheX-D6 [4]": {"biological_target": "T1, PheX-D6", "assay": "ESI-MS encoding fidelity of sfGFP_N150TAG expressed in E. coli with PheX-D6", "assay_type": "cell-based", "design": "Phex-D6 ECOLI; expressed in transfected cells; host or cells: E. coli", "conditions": "sfGFP N150TAG, 1 mM ncAA, intact protein ESI-MS", "experimental": "as §2, §3"}, "F1486TAG-hNav 1.5": {"system": "F1486TAG-hNav 1.5", "assay": "Western blot of full-length F1486TAG-hNav 1.5 expression via PheX-D6", "assay_type": "cell-based, human", "conditions": "F1486TAG hNav 1.5 with PheX-D6, HEK 293T, 2 mM ncAA, result in words", "experimental": "(§4) pCMV-CFTR was a gift from Paul McCray (University of Iowa). WT CFTR-TAA (the existing TAG stop codon changed to TAA), F508 TAG CFTR (TAG amber codon introduced at F508 in the above WT construct), as well as WT and F1486TAG hNav 1.5_strep_HIS_strep were produced using standard methods and sequenced through the open reading frame. For expression of WT CFTR, 10 cm dishes of HEK 293T cells were transfected with 1.5 μg WT CFTR-TAA and 0.25 μg WT GFP. For expression of WT hNav 1.5, 10 cm dishes of HEK 293T cells were transfected with 1.5 μg of WT hNav 1.5_strep_HIS_strep and 0.25 μg WT GFP. For encoding of 2,3,6F Phe, 10 cm dishes of HEK 293T cells were transfected from master mixes of DNA such that each dish received 3.5 μg of PheX-D6 and 0.25 μg of sfSFGFP_N150TAG. Depending on condition, 2 μg of F508TAG-CFTR or 1.5 μg of F1486TAG-Nav 1.5-SHS were added. Media was changed twice (˜16 hr and ˜32 hr post transfection), and cells were harvested ˜44 hrs post transfection and flash frozen in aliquots. Cell pellets were resuspended in RIPA (Sigma Aldrich) plus Roche protease inhibitors. 60 μg of protein from cleared, unconcentrated lysate (or a dilution) was loaded on 4-20% SDS gels. […]"}, "F508TAG-CFTR": {"system": "F508TAG-CFTR", "assay": "Western blot of full-length F508TAG-CFTR expression via PheX-D6", "assay_type": "cell-based, human", "conditions": "F508TAG CFTR with PheX-D6, HEK 293T, 2 mM ncAA, result in words", "experimental": "as §4"}, "sfGFP-N150TAG": {"system": "sfGFP-N150TAG", "assay": "Permissivity screen (E. coli), sfGFP-N150TAG rescue fluorescence", "assay_type": "cell-based", "conditions": "result in words; for encoding level in E. coli by the synthetases tested: 1 mM ncAA, 24 hours", "experimental": "Electrocompetent DH10B cells containing the pALS reporter plasmid were transformed with isolated pBK plasmids containing the synthetases. Cultures of 5 mL were inoculated with single colonies of each synthetase in non-inducing media with 50 μg/mL kanamycin and 25 μg/mL tetracycline and grown for 16 hours. Noncanonical amino acid stocks were made at 100× their final concentration. 96-well blocks were prepared with 500 μL of auto-induction media containing antibiotics, and ncAAs with a final working concentration of 1 mM were added to their respective wells. Each well was then inoculated with a corresponding synthetase, yielding a final 96-well block where each synthetase was tested against each amino acid of interest. Cultures were grown in duplicate and fluorescence measurements were taken at 24 hours."}, "sfGFP_N150TAG": {"system": "sfGFP_N150TAG", "assay": "Permissivity screen (mammalian), lysate GFP fluorescence", "assay_type": "cell-based, human", "conditions": "HEKT cells, PheX-D6, result in words", "experimental": "HEKT cells were seeded in 60 mm dishes so that they would be approximately 60-80% confluent the next day. We transfected the cells using 1.75 μg of the PacBac1-based synthetase plasmid (PheX-D6 or PheX-B5) and 0.75 μg of sfGFP_N150TAG per dish. Polyjet was used (7.5 μl per dish, 2.5 mL media volume). Media was exchanged to contain ncAAs at a given concentration before transfection and approximately 16 hours after transfection. Amino acids were solubilized either in NaOH for those synthesized as free acids (penta-flouro, 2,3,6 trifluoro, 3,4,5 trifluoro, 2,5 difluoro, 2,4 difluoro, 2 mono) or in HCl for those synthesized as HCl salts (2,3,5,6 tetrafluoro, 2,3,4,5 tetrafluoro, 2,6 difluoro). Cells were imaged and harvested approximately 24 hrs after transfection. Images were taken with 20× objective using a Leica DFC9000GT camera with 700 ms exposure, without binning. Excitation was through an X-Cite 120 LED (Lumen Dynamics) set to 100% intensity. For bright field images, light was adjusted manually. […] After cell debris and nuclei were cleared via centrifugation, GFP fluorescence was read from supernatants in 96 well plates; for each concentration of amino acid, at least 6 readings were made from at least 2 transfections. The level of fluorescence from lysates from untransfected cells averaged 21.7±2.1 RFU. […]"}},
  "data": [
    {"compound": "N[C@@H](Cc1c(F)cccc1F)C(=O)O", "note": "[2,6-fluoro Phe, 2,6 di-fluoro Phenylalanine]", "values": [
      {"measurement": "fidelity (encoding)", "setting": "PheX-D6 [1]", "result": 97.6, "unit": "%"},
      {"measurement": "encoding fidelity", "setting": "PheX-B5 [2]", "result": 81.8, "unit": "%"},
      {"measurement": "fidelity (encoding)", "setting": "PheX-B5 [3]", "result": 100, "unit": "%"},
      {"measurement": "encoding fidelity", "setting": "PheX-D6 [4]", "result": 95.0, "unit": "%"}
    ]},
    {"compound": "N[C@@H](Cc1c(F)ccc(F)c1F)C(=O)O", "note": "[2,3,6-fluoro Phe, 2,3,6 tri-fluoro Phenylalanine]", "values": [
      {"measurement": "fidelity (encoding)", "setting": "PheX-D6 [1]", "result": 98.5, "unit": "%"},
      {"measurement": "expression of full-length channel (western blot)", "setting": "F1486TAG-hNav 1.5", "result": "dependent on addition of 2,3,6F Phe"},
      {"measurement": "encoding fidelity", "setting": "PheX-B5 [2]", "result": 88.1, "unit": "%"},
      {"measurement": "expression of full-length channel (western blot)", "setting": "F508TAG-CFTR", "result": "dependent on addition of 2,3,6F Phe"},
      {"measurement": "fidelity (encoding)", "setting": "PheX-B5 [3]", "result": 100, "unit": "%"},
      {"measurement": "encoding fidelity", "setting": "PheX-D6 [4]", "result": 96.7, "unit": "%"}
    ]},
    {"compound": "N[C@@H](Cc1c(F)c(F)cc(F)c1F)C(=O)O", "note": "[2,3,5,6-fluoro Phe, 2,3,5,6 tetra-fluoro Phenylalanine]", "values": [
      {"measurement": "fidelity (encoding)", "setting": "PheX-D6 [1]", "result": 98.2, "unit": "%"},
      {"measurement": "encoding fidelity", "setting": "PheX-B5 [2]", "result": 97.9, "unit": "%"},
      {"measurement": "encoding level in E. coli by the synthetases tested", "setting": "sfGFP-N150TAG", "result": "comparable levels to para-methyl tetra-fluoro Phe"},
      {"measurement": "fidelity (encoding)", "setting": "PheX-B5 [3]", "result": 100, "unit": "%"},
      {"measurement": "encoding fidelity", "setting": "PheX-D6 [4]", "result": 98.7, "unit": "%"}
    ]},
    {"compound": "N[C@@H](Cc1ccccc1F)C(=O)O", "note": "[2-fluoro Phe, 2-mono fluoro Phenylalanine]", "values": [
      {"measurement": "encoding fidelity", "setting": "PheX-B5 [2]", "result": 95.6, "unit": "%"},
      {"measurement": "expression in the screen", "setting": "sfGFP-N150TAG; E. coli, D6 synthetase", "result": "low expression in the screen"},
      {"measurement": "site-specificity of encoding (ESI-MS)", "setting": "PheX-B5 [3]; HEKT cells, sfGFP-N150TAG with PheX-B5, result in words", "result": "widespread encoding of 2-mono fluoro Phe at Phe-codons"}
    ]},
    {"compound": "N[C@@H](Cc1cc(F)ccc1F)C(=O)O", "note": "[2,5-fluoro phenylalanine, 2,5-difluoro-Phe]", "values": [
      {"measurement": "fidelity (encoding)", "setting": "PheX-D6 [1]", "result": 95.6, "unit": "%"},
      {"measurement": "fidelity (encoding)", "setting": "PheX-B5 [3]", "result": 91.3, "unit": "%"}
    ]},
    {"compound": "N[C@@H](Cc1c(F)c(F)c(F)c(F)c1F)C(=O)O", "note": "[Penta-fluoro Phe, 2,3,4,5,6 penta-fluoro Phenylalanine]", "values": [
      {"measurement": "fidelity (encoding)", "setting": "PheX-D6 [1]", "result": 97.5, "unit": "%"},
      {"measurement": "encoding fidelity", "setting": "PheX-B5 [2]", "result": 97.5, "unit": "%"},
      {"measurement": "encoding level in E. coli by the synthetases tested", "setting": "sfGFP-N150TAG", "result": "comparable levels to para-methyl tetra-fluoro Phe"},
      {"measurement": "fidelity (encoding)", "setting": "PheX-B5 [3]", "result": 96.2, "unit": "%"},
      {"measurement": "encoding fidelity", "setting": "PheX-D6 [4]", "result": 98.2, "unit": "%"},
      {"measurement": "useable ncAA concentration (dose-response)", "setting": "sfGFP_N150TAG", "result": "useable at sub-millimolar concentrations"}
    ]},
    {"compound": "N[C@@H](Cc1cc(F)c(F)c(F)c1F)C(=O)O", "note": "[2,3,4,5-fluoro phenylalanine, 2,3,4,5 tetra-fluoro Phenylalanine]", "values": [
      {"measurement": "fidelity (encoding)", "setting": "PheX-D6 [1]", "result": 100, "unit": "%"},
      {"measurement": "fidelity (encoding)", "setting": "PheX-B5 [3]", "result": 97.4, "unit": "%"}
    ]}
  ]
}
